{"source": "patent US6191117A", "about": "“Methods of producing weight loss and treatment of obesity” (priority 2000, dated 2001)", "origin": "cited, not measured here", "key": {"[1]": {"test_system": "kainate/AMPA receptor"}, "[2]": {"test_system": "NMDA receptor"}, "[3]": {"test_system": "epileptic patients", "conditions": "human, in vivo"}, "[4]": {"test_system": "epileptic patients"}, "[5]": {"test_system": "GABA receptor"}, "[6]": {"test_system": "L-type calcium channels"}, "[7]": {"test_system": "patients treated for epilepsy"}, "[8]": {"test_system": "sodium channel"}}, "data": [{"smiles": "NC(=O)OCC(COC(N)=O)c1ccccc1", "note": "[FBM]", "values": [{"measurement": "activity at the kainate/AMPA receptor", "setting": "[1]", "result": "interaction at the kainate/AMPA receptor"}, {"measurement": "activity at the NMDA receptor", "setting": "[2]", "result": "glycine site NMDA antagonist"}, {"measurement": "cognition and fine motor function", "setting": "[3]", "result": "increase both cognition and fine motor function"}, {"measurement": "aplastic anemia and hepatic failure, 1994 reports", "setting": "[4]; 1994 reports", "result": "causing aplastic anemia and hepatic failure"}, {"measurement": "thrombocytopenia and neutropenia", "setting": "[4]; add-on therapy, Lennox-Gestalt Syndrome, prior to FDA approval", "result": "Several mild cases of thrombocytopenia and neutropenia"}, {"measurement": "aplastic anemia or hepatic dysfunction after FDA warning", "setting": "[4]; adjunctive FBM, refractory epilepsy, serum levels monitored", "result": "No cases of aplastic anemia or hepatic dysfunction"}, {"measurement": "safety of long usage", "setting": "[4]; adjunctive therapy, at least one year", "result": "relatively safe after usage for at least one year"}, {"measurement": "aplastic anemia or hepatic dysfunction prior to approval", "setting": "[4]; prior to drug approval", "result": "no reported cases of aplastic anemia or hepatic dysfunction"}, {"measurement": "aplastic anemia attributable to FBM monotherapy", "setting": "[4]; recent analysis", "result": "only several cases of aplastic anemia"}, {"measurement": "drug interactions", "setting": "[4]; with other antiepileptic drugs", "result": "elevation of dilantin, depakote, phenobarbitol levels and the toxic epoxide metabolite of tegretol"}, {"measurement": "action on GABA", "setting": "[5]", "result": "facilitation of the GABA receptor"}, {"measurement": "interaction at L-type calcium channels", "setting": "[6]", "result": "an interaction at the L-type calcium channels"}, {"measurement": "weight loss", "setting": "[7]; FBM monotherapy, non-obese patients", "result": 5, "unit": "%"}, {"measurement": "course of weight loss", "setting": "[7]; add-on therapy, partial epilepsy, non-obese patients", "result": "transient and returned to baseline after twenty weeks"}, {"measurement": "anorexia and weight loss", "setting": "[7]; patients treated for epilepsy", "result": "induce anorexia and weight loss"}, {"measurement": "action on sodium channel", "setting": "[8]", "result": "modulation of the Na++ channel conductance"}]}]}
